In ChEMBL document CHEMBL1132032, “3-Acyloxy-2-phenalkylpropyl amides and esters of homovanillic acid as novel vanilloid receptor agonists” (Bioorg Med Chem Lett, 1999):
Activity calls are given as the source filed them. The rule behind the calls is not given here.

Columns and labels:
[1] = molecular target: T1, Vanilloid receptor (Rattus norvegicus) (UniProt Q9ERZ8+Q9WUD2+O35433); assay: Cation influx relative to capsaicin (CAP) in cultured neonatal rat dorsal root ganglia (No response); assay type: functional
T1 sequence (O35433 whole entry, looked up): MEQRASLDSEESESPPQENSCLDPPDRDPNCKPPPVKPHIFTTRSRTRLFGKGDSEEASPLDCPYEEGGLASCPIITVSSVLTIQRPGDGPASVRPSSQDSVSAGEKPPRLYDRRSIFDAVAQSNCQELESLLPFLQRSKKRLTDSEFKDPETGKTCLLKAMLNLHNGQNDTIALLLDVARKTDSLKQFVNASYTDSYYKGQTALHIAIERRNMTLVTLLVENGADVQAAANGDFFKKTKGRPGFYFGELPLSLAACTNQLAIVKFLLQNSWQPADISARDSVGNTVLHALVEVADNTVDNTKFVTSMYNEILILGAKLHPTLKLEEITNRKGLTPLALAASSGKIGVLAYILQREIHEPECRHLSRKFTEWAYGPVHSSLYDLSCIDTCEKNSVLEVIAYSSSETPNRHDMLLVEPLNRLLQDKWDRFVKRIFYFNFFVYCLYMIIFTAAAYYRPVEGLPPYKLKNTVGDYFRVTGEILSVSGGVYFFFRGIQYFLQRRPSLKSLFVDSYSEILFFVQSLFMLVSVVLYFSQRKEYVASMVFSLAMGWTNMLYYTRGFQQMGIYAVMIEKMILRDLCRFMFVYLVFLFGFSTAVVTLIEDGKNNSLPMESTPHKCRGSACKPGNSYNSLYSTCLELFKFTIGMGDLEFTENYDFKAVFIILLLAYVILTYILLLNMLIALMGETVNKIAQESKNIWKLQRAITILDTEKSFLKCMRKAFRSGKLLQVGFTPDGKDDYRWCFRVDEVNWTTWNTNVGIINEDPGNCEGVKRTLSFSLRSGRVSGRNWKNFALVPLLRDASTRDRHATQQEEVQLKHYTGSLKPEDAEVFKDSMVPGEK
T1 sequence (Q9ERZ8 whole entry, looked up): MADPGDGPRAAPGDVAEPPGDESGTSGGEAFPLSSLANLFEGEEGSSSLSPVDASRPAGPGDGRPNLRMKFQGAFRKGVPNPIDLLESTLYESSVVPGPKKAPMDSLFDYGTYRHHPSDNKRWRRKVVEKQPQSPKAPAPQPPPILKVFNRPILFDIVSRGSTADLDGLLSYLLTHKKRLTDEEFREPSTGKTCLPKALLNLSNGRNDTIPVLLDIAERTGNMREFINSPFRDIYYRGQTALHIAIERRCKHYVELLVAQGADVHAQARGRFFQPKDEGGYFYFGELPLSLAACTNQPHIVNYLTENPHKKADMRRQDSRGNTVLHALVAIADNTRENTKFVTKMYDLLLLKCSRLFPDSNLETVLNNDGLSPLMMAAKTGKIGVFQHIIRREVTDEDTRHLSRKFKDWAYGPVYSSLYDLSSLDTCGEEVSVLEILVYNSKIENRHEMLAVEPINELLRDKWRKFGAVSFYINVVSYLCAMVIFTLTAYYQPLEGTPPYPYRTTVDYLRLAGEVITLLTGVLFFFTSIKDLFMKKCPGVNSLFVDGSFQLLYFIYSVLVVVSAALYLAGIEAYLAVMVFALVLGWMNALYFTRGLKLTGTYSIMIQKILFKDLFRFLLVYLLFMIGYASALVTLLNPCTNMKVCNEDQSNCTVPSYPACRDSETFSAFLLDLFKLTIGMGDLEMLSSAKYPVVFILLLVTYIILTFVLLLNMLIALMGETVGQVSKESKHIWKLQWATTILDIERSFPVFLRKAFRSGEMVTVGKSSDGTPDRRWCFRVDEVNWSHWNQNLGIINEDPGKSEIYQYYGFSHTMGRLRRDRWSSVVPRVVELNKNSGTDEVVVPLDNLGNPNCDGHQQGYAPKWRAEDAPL
T1 sequence (Q9WUD2 whole entry, looked up): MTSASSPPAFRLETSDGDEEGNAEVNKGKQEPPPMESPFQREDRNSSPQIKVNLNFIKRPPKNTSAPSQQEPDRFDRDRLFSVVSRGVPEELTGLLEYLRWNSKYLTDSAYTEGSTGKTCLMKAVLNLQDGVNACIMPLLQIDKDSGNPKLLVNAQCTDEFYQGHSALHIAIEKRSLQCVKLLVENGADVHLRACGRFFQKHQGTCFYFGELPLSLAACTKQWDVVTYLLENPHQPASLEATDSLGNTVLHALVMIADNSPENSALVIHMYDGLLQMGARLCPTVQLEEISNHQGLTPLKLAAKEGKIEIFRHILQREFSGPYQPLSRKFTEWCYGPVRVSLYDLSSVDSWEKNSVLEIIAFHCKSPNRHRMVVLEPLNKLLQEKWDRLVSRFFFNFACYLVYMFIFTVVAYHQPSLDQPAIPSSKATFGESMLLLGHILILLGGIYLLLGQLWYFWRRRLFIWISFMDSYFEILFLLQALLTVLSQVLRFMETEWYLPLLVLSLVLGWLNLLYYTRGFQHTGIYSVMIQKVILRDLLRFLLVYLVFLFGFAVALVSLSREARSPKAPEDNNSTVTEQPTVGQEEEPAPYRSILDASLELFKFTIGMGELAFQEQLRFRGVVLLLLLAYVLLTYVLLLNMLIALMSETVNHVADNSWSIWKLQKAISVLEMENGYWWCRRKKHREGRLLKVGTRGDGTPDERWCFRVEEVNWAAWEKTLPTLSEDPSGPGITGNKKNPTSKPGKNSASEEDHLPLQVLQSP

[2] = molecular target: Transient receptor potential cation channel subfamily V member 1 (Rattus norvegicus, UniProt O35433); assay: In vitro binding affinity towards vanilloid receptor by [3H]RTX displacement.
Transient receptor potential cation channel subfamily V member 1, sequence (O35433 whole entry): as the sequence (O35433 whole entry, looked up) above

[3] = molecular target: T1, Vanilloid receptor (Rattus norvegicus); assay: Cation influx relative to capsaicin (CAP) in cultured neonatal rat dorsal root ganglia (W = Weaker than CAP); assay type: functional
[4] = molecular target: T1, Vanilloid receptor (Rattus norvegicus); assay: Cation influx relative to capsaicin (CAP) in cultured neonatal rat dorsal root ganglia (++ = 10xCAP); assay type: functional
[5] = molecular target: T1, Vanilloid receptor (Rattus norvegicus)
Description: Cation influx relative to capsaicin (CAP) in cultured neonatal rat dorsal root ganglia (+++ = 100xCAP)

[6] = molecular target: T1, Vanilloid receptor (Rattus norvegicus); assay: Cation influx relative to capsaicin (CAP) in cultured neonatal rat dorsal root ganglia (+ = similar to CAP); assay type: functional

Compound	Cation influx [1]	Ki [2] [µM]	also measured
COc1cc(CC(=O)OC/C(=C/COCc2ccccc2)COC(C)=O)ccc1O	inactive	> 100	
COc1cc(CC(=O)NC/C(=C\Cc2ccccc2)COC(C)=O)ccc1O		12.9	Cation influx [3]: Partially active
COc1cc(CC(=O)OCC(COC(C)=O)Cc2ccccc2)ccc1O (stereo unspecified)	inactive	> 100	
COC(=O)/C=C/C(CNC(=O)Cc1ccc(O)c(OC)c1)Cc1ccccc1 (stereo unspecified)		13.5	Cation influx [3]: Partially active
COc1cc(CC(=O)OCC(COC(C)=O)OCc2ccccc2)ccc1O (stereo unspecified)	inactive	> 100	
COc1cc(CC(=O)NC/C(=C/Cc2ccccc2)COC(C)=O)ccc1O		29.2	Cation influx [3]: Partially active
COc1cc(CC(=O)OCC(COCc2ccccc2)COC(C)=O)ccc1O (stereo unspecified)	inactive	> 100	
COc1cc(CC(=O)OC/C(=C\COCc2ccccc2)COC(C)=O)ccc1O	inactive	> 100	
C=C(C)[C@]12C[C@@H](C)[C@@]34O[C@](Cc5ccccc5)(O[C@@H]1[C@@H]3C=C(COC(=O)Cc1ccc(O)c(OC)c1)C[C@]1(O)C(=O)C(C)=C[C@@H]41)O2 [RESINIFERATOXIN]		2.3e-05	Cation influx [5]: Active
COc1cc(CC(=O)NCC(COC(C)=O)OCc2ccccc2)ccc1O (stereo unspecified)	inactive	> 100	

Second part, led by results:

Cation influx [1]	Ki [2] [µM]	Compound	also measured
	19.3	COc1cc(CC(=O)NCC(COC(C)=O)Cc2ccccc2)ccc1O (stereo unspecified)	Cation influx [3]: Partially active
	0.404	COc1cc(CC(=O)NCC(COC(=O)C(C)(C)C)Cc2ccccc2)ccc1O (stereo unspecified)	Cation influx [4]: Active
	0.48	COc1cc(CC(=O)NCC(/C=C/C(=O)OC(C)(C)C)Cc2ccccc2)ccc1O (stereo unspecified)	Cation influx [4]: Active
inactive	78	COc1cc(CC(=O)NCC(COCc2ccccc2)COC(C)=O)ccc1O (stereo unspecified)	
	0.295	COc1cc(CC(=O)NCC(CCc2ccccc2)COC(=O)C(C)(C)C)ccc1O (stereo unspecified)	Cation influx [4]: Active
	1.4	COc1cc(CC(=O)NCCCc2ccc(C)c(C)c2)ccc1OCCN [DAVASAICIN]	Cation influx [6]: Active
	1.22	COc1cc(CC(=O)NC/C(=C\Cc2ccccc2)COC(=O)C(C)(C)C)ccc1O	Cation influx [4]: Active
	45.2	COc1cc(CC(=O)NCC(CCc2ccccc2)COC(C)=O)ccc1O (stereo unspecified)	Cation influx [3]: Partially active
